Values of other authors in patent US20050065127A1, “2-Alkylidene-19-nor-vitamin D derivatives for the treatment of osteosarcoma” (Pfizer Inc., priority 2003, published 2005).

System: serum calcium (bone calcium mobilization)
Conditions: chronic mode, 7 days, rats; 20S compound at 130 pmol/day

SMILES: C=C1[C@H](O)CC(=C/C=C2\CCC[C@]3(C)[C@@H]([C@H](C)CCCC(C)(C)O)CC[C@@H]23)C[C@H]1O [2-Methylene-19-Nor-1,25-(OH)2D3, 1α,25-dihydroxy-2-methylene-19-nor-vitamin D3]
- Bone calcium mobilization activity (serum calcium) relative to 1,25-(OH)2D3: 10-100 times
